Data set [1] concerns mCherry-expressing M. bovis BCG. It is filed as cell-based.
The next data set deals with ER/neutral Ca^2+ store. In words: Cytosolic Ca^2+ / ER Ca^2+ store content probed with ionomycin. Type of data set: cell-based.
The conditions of data set [2]: cited from earlier work; for neurological side effects: adult mice, Andersson et al. 2004; for CNS penetration: mouse, in vivo.
For the next data set, the system named is GSL biosynthesis. As to conditions: cited from earlier work.
Data set [3] relates to total ganglioside and GM1 content. As to conditions: Kasperzyk et al. 2005; cited from earlier work.
For data set [4] the following is noted: mouse models of GSL storage diseases; cited from earlier work.
Data set [5] concerns M. smegmatis. In words: Clearance of M. smegmatis in RAW 246.7 cells. Type of data set: cell-based, Mycobacterium smegmatis. Particulars: RAW 246.7 cells incubated with U18666A (1 μg/ml, 48 hours) prior to infection; relative to untreated cells; FIG. 12.
Data set [6] relates to M. smegmatis. As to the kind of experiment: Clearance of M. smegmatis in primary human macrophages. As to conditions: primary human macrophages treated with U18666A; FIG. 14. Type of data set: cell-based, Mycobacterium smegmatis.
Data set [7] has as its system M. smegmatis. In words: Clearance of M. smegmatis in wild-type mouse macrophages. Type of data set: cell-based, Mycobacterium smegmatis. Particulars: U18666A-treated wild-type mouse macrophages; FIG. 13.
The next data set has as its system BCG. It is filed as cell-based, M. bovis BCG.
Data set [8] concerns sarco-endoplasmic reticulum Ca^2+-ATPase (SERCA). Particulars: Bilmen et al. 2001; cited from earlier work.
The test system of the next data set is GSL levels. As to conditions: mice; Platt 1997; cited from earlier work.
For data set [9], the system named is lysosomal expansion/storage. As to the kind of experiment: Lysotracker fluorescence (lysosomal expansion/storage). Type of data set: cell-based. As to conditions: FIG. 6B. How it is done: Cells were live stained with 50 nM Lysotracker green (Molecular Probes) in PBS at room temperature for 30 min prior to washing.
A further data set concerns NPC phenotypes. Type of data set: cell-based.
A further data set concerns GSL. Type of data set: cell-based.
A further data set concerns LE/Lys Ca^2+. Type of data set: cell-based.
For a further data set, the system named is NPC1. In words: TDM on bone marrow-derived macrophages from NPC1 heterozygous mice. Type of data set: cell-based, mouse.

On to `OC[C@H]1O[C@@H]2O[C@H]3[C@H](O)[C@@H](O)[C@@H](O[C@H]4[C@H](O)[C@@H](O)[C@@H](O[C@H]5[C@H](O)[C@@H](O)[C@@H](O[C@H]6[C@H](O)[C@@H](O)[C@@H](O[C@H]7[C@H](O)[C@@H](O)[C@@H](O[C@H]8[C@H](O)[C@@H](O)[C@@H](O[C@H]1[C@H](O)[C@H]2O)O[C@@H]8CO)O[C@@H]7CO)O[C@@H]6CO)O[C@@H]5CO)O[C@@H]4CO)O[C@@H]3CO` [3-cyclodextrin, β-cyclodextrin], for which the “mycobacterial clearance, agent alone” value in data set [1] is recorded as “neither of these molecules alone promoted mycobacterial clearance”.

In the case of `COc1ccc(/C=C/C(=O)C(C)(C)C(=O)/C=C/c2ccc(OC)c(OC)c2)cc1OC` [FLLL31], the BCG clearance result in data set [1] is reported as “had no effect”. Besides, the “effect on cytosolic Ca^2+ levels” value with ER/neutral Ca^2+ store is on record as “has no effect on cytosolic Ca^2+ levels”.

Take `CCCCN1C[C@H](O)[C@@H](O)[C@@H](O)[C@H]1CO` [NB-DGJ, N-butyldeoxygalactonojirimycin]: in data set [2], the neurological side effects result is on record as “not to cause neurological side effects” and the CNS penetration result is reported as “penetrate the CNS”. For the same molecule, in the data set on GSL biosynthesis, the “inhibition of GSL biosynthesis relative to NB-DNJ” value is listed as “comparably to NB-DNJ”. The “total ganglioside and GM1 content in cerebrum-brainstem” value in data set [3] is listed as “marked reduction”. Also, the tolerability entry in data set [4] is on record as “very well tolerated”.

With `CCN(CC)CCO[C@H]1CC[C@@]2(C)C(=CC[C@@H]3[C@@H]2CC[C@]2(C)C(=O)CC[C@@H]32)C1` [U18666A], in the data set on M. smegmatis [5], the “ability to clear non-pathogenic M. smegmatis” value is given as “impaired ability to clear non-pathogenic M. smegmatis”. The “clearance of M. smegmatis” value in the data set with M. smegmatis [6] and with M. smegmatis [7] was “Impaired clearance of M. smegmatis” each time.

Turning to `COc1cc(/C=C/C(=O)CC(=O)/C=C/c2ccc(O)c(OC)c2)ccc1O` [curcumin], in the data set on BCG, the mycobacterial burden entry is reported as “significantly reduced mycobacterial burden”. For the same molecule, in [8], the “Ca^2+ uptake by SERCA” value is reported as “inhibits Ca^2+ uptake”. Besides, in data set [1], the BCG clearance result is “promoted BCG clearance”, the “bacterial clearance in cells loaded with the Ca^2+ chelator BAPTA” value was “abrogated” and the “level of infection (average fluorescence intensity of mCherry-expressing BCG)” value is “significantly lower level of infection”. The “effect on cytosolic Ca^2+ levels” value with ER/neutral Ca^2+ store is “raises cytosolic [Ca^2+ ]”.

In the case of `CCCCN1C[C@H](O)[C@@H](O)[C@H](O)[C@H]1CO` [miglustat, N-butyldeoxynojirimycin], in [2], the neurological side effects result is listed as “not to cause neurological side effects” and the CNS penetration result is given as “penetrate the CNS”. For the same molecule, the “mycobacterial clearance, agent alone” value in [1] is “neither of these molecules alone promoted mycobacterial clearance”. Further, in the data set with GSL levels, the “duration of treatment after which the effect on GSL levels stabilizes” value is listed as 10 days and the “onset of decrease in GSL levels” value was “measurable decrease in GSL levels within a day of treatment”.

Regarding “glucose monomycolate [GMM from non-pathogenic M. smegmatis]”, the “Lysotracker fluorescence, NPC-like lysosomal expansion/storage” value in data set [9] was “minimal effects”.

With glucose monomycolate [GMM], in data set [9], the “Lysotracker fluorescence, NPC-like lysosomal expansion/storage” value is given as “only modest lysosomal expansion that did not reach statistical significance”.

For the molecule “trehalose dimycolate [TDM from M. bovis]”, in the data set with NPC phenotypes, the GM1 trafficking entry is recorded as “GM1 mistrafficking”. Further, in the data set on GSL, the GSL levels result was “GSL accumulation”. In the data set with LE/Lys Ca^2+, the “LE/Lys Ca^2+ levels” value is on record as “reduced LE/Lys Ca^2+ levels”.

Regarding trehalose dimycolate [TDM], the “susceptibility of Npc1+/- macrophages (50% of wild-type NPC1 protein) to inhibition by TDM, versus wild-type” value with NPC1 is “more susceptible to inhibition”. Moreover, the “Lysotracker fluorescence, NPC-like lysosomal expansion/storage” value in [9] was “greatest increase in Lysotracker fluorescence”.

On to trehalose monomycolate [TMM], for which the “Lysotracker fluorescence, NPC-like lysosomal expansion/storage” value in data set [9] is recorded as “only modest lysosomal expansion that did not reach statistical significance”.

Source of the values: US20180125796A1, “TREATMENT OF MYCOBACTERIAL INFECTION” (priority 2015, published 2018).
